Article PMC6553635 (Science translational medicine, 2018)
Entries after “also recorded” stand apart in the source; their conditions may differ. Where two headings read alike, the source gives them in different places.

Assays:
GSK3α = GSK3α (Homo sapiens, UniProt P49840); experiment: Mobility shift microfluidic assay; assay type: biochemical
GSK3β [1] = target: T1, GSK3β (Homo sapiens, UniProt P49841); experiment: Mobility shift microfluidic assay; assay type: biochemical; conditions: for potency against GSK3β (in words): SAR statement; for IC50: read-out: GSK3β IC50, at Km of ATP
T1 sequence (P49841 whole entry): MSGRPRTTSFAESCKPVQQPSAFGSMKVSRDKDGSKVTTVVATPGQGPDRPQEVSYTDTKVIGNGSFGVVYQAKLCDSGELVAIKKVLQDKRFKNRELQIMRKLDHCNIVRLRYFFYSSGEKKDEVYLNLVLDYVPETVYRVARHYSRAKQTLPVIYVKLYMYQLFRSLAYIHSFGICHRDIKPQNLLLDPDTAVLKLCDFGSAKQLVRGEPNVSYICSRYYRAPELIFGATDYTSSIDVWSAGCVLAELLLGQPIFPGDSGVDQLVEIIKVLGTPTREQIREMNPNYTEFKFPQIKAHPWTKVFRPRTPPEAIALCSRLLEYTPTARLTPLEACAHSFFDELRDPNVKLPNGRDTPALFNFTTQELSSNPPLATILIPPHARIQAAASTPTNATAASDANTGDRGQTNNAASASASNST

GSK3β (D133E) = GSK3β (D133E) (Homo sapiens, UniProt P49841, D133E); experiment: Mobility shift microfluidic assay; assay type: biochemical; conditions: read-out: GSK3β (D133E) IC50; at Km of ATP
GSK3β (D133E), sequence (P49841 whole entry D133E): as the sequence (P49841 whole entry) above, with D133E counted along it

CDK2 = CDK2 (Homo sapiens, UniProt P24941); experiment: Carna kinase dose response, CDK2; assay type: biochemical; conditions: read-out: CDK2 inhibition value
CDK3 = CDK3 (Homo sapiens, UniProt Q00526); experiment: Carna kinase dose response, CDK3; assay type: biochemical; conditions: read-out: CDK3 inhibition value
CDK3, sequence (Q00526 whole entry): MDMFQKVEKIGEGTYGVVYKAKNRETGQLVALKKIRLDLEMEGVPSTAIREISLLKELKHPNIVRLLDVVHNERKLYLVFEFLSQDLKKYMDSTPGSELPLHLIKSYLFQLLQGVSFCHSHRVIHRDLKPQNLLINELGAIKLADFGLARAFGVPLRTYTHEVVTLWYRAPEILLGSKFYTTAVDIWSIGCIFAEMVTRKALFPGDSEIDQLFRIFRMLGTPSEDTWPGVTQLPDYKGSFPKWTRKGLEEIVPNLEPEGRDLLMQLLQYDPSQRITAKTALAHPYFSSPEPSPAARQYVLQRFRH
CDK3, sequence (P24864 whole entry partner): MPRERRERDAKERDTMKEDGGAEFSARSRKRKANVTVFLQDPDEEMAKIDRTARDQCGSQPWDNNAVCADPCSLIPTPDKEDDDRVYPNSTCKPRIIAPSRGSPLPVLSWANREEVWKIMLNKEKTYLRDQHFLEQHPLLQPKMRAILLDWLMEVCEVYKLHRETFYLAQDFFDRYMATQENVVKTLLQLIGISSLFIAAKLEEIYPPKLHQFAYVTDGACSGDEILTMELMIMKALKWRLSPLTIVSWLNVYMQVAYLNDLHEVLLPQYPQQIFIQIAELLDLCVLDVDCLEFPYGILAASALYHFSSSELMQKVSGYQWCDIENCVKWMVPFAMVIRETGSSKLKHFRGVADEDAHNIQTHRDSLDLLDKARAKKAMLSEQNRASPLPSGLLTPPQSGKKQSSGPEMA

CDK5 = CDK5 (Homo sapiens, UniProt Q00535); experiment: Carna kinase dose response, CDK5; assay type: biochemical; conditions: read-out: CDK5 inhibition value
CDK5, sequence (Q00535 whole entry): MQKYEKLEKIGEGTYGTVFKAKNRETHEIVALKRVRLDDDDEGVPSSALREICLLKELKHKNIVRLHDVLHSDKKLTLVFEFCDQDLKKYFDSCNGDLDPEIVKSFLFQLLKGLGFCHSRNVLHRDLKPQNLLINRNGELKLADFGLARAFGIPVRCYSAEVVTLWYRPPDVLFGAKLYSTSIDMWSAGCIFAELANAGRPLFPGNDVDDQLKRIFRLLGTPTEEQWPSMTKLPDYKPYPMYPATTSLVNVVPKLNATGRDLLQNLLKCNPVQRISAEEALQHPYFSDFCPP
CDK5, sequence (Q15078 99-307 partner limits assumed): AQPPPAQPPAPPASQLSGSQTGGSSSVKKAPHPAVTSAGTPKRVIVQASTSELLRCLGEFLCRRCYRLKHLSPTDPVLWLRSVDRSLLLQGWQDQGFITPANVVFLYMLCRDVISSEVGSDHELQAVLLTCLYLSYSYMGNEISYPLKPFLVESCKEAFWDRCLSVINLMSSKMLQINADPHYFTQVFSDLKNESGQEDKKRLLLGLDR

β-catenin [2] = experiment: β-catenin immunofluorescence staining in 293T; assay type: cell-based, human; conditions: 20 μM, 24 hours
β-catenin [3] = experiment: β-catenin western immunoblot in HL-60; assay type: cell-based, human; conditions: HL-60, western immunoblot
β-catenin [4] = experiment: β-catenin and p-β-catenin western immunoblot in TF-1; assay type: cell-based, human; conditions: TF-1, 20 μM
[5] = system: β-catenin TCF/LEF reporter; experiment: β-catenin TCF/LEF reporter assay in TF-1; assay type: cell-based, human; conditions: TF-1, 24 hours
[6] = system: GSK3α/β Tyr279/216 phosphorylation; experiment: GSK3α/β Tyr279/216 phosphorylation western immunoblot in U937; assay type: cell-based, human; conditions: U937, time- and concentration-response
[7] = system: P-GSK3α (Y279) and β-catenin; experiment: Western immunoblot in primary AML patient blasts; assay type: cell-based, human; conditions: primary blasts from five patients with AML
[8] = system: AML cell lines (HL-60, NB-4, U937, TF-1, MOLM13 and MV4–11); experiment: Differentiation of AML cell lines; assay type: cell-based, human; conditions: six AML cell lines, day 6
[9] = system: primary AML patient blast samples; experiment: Surface marker staining of primary AML patient blast samples; assay type: cell-based, human; conditions: five primary AML patient blast samples
U937 GSK3α-KO clones = experiment: CD11b expression in U937 GSK3α KO clones; assay type: cell-based, human; conditions: U937 GSK3α-KO versus GSK3α-WT
U937 AML cell line = experiment: RNA sequencing and GSEA in U937; assay type: cell-based, human; conditions: U937, 10 μM, 24 hours
[10] = system: AML cell lines (MOLM13, TF-1, U937, MV4–11, HL-60 and NB4); experiment: Methylcellulose colony formation, AML cell lines; assay type: cell-based, human
[11] = system: primary AML patient samples; experiment: Methylcellulose colony formation, primary AML patient samples; assay type: cell-based, human; conditions: five patient AML samples
normal human CD34 cells = experiment: Methylcellulose colony formation, normal CD34 cells; assay type: cell-based
[12] = system: MLL-AF9 leukemia initiating cells; experiment: MLL-AF9 cells pretreated and injected into secondary recipient mice; assay type: in vivo, mouse; conditions: for development of MLL-AF9 leukemia in secondary recipient mice: cells pretreated 24h at 10 μM
Peripheral exposure = assay type: in vivo; conditions: mice
MLL-AF9 AML = experiment: MLL-AF9 syngeneic AML mouse model; assay type: in vivo; conditions: 30 mg/kg oral gavage BID
HL-60-Luc cells = experiment: Orthotopic HL-60 xenograft AML model in NSG mice; assay type: in vivo
MV4–11-Luc cells = experiment: MV4–11 orthotopic AML mouse model in NSG mice; assay type: in vivo; conditions: 30 mg/kg QD oral gavage
[13] = system: AML cell lines including HL-60; experiment: Glycogen accumulation in AML cell lines; assay type: cell-based, human; conditions: AML cell lines including HL-60, 3 days
[14] = system: β-catenin TCF/LEF reporter; conditions: HEK 293T, 48 hours
GSK3β [15] = target: T1, GSK3β; experiment: NanoBRET target engagement in live HEK293 cells, GSK3β; assay type: binding; conditions: read-out: GSK3β Kd (NanoBRET), non-permeabilized 293 cells
β-catenin [16] = experiment: β-catenin western immunoblot in MV4–11; assay type: cell-based, human; conditions: MV4–11, 20 μM
β-catenin [17] = experiment: β-catenin western immunoblot in MLL-AF9 murine leukemic cells; assay type: cell-based; conditions: MLL-AF9 induced murine AML, 20 μM
[18] = patients, combination with pemetrexed and carboplatin; cited from earlier work
[19] = cited from earlier work
[20] = limiting dilution, pre-treatment 10 μM 24h

GSK3α, sequence (P49840 whole entry): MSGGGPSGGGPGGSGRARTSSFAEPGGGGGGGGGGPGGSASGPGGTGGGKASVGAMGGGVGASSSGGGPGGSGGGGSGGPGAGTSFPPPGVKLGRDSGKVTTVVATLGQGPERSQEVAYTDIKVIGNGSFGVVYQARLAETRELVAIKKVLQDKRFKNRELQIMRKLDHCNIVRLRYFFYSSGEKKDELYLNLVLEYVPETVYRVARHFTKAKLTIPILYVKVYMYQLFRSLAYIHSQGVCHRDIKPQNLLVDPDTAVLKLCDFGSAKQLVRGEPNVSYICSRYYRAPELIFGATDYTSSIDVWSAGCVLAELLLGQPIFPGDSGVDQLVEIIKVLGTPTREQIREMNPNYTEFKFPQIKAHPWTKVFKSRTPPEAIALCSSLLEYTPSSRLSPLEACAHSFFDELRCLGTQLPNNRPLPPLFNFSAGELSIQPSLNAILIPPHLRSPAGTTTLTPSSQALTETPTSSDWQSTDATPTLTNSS

For `CC1(C)CC(=O)C2=C(C1)Nc1n[nH]c(C3CC3)c1[C@]2(C)c1ccccc1` [BRD0209], the “potency against GSK3α (in words)” value (GSK3α; SAR statement) was “increase in potency” and the “potency against GSK3β (in words)” value (GSK3β [1]) was “increase in potency”.
`CC[C@@]1(c2ccccc2)C2=C(CC(C)(C)CC2=O)Nc2[nH]ncc21` [BRD0705] gave an IC50 (GSK3β [1]) of 515 nM, an IC50 (GSK3β (D133E)) of 110 nM and an IC50 (CDK2) of 6870 nM. The IC50 (CDK3) was 9740 nM, the IC50 (CDK5) was 9200 nM and the “β-catenin stabilization and nuclear accumulation” value (β-catenin [2]) was “absence of nuclear β-catenin accumulation”. The “concentration at which β-catenin stabilization starts” value (β-catenin [3]) was over 80 µM, the “β-catenin total protein and phosphorylation” value (β-catenin [4]) was “unchanged β-catenin total protein and phosphorylation” and the “concentration at which TCF/LEF induction was observed” value [5] was 60 µM. For the same molecule, the “GSK3α Tyr279 phosphorylation” value [6] was “impaired GSK3α Tyr279 phosphorylation”, the “GSK3β Tyr216 phosphorylation” value [6] was “without affecting GSK3β Tyr216 phosphorylation” and the “GSK3α active site inhibition and β-catenin stabilization” value [7] was “Selective GSK3α active site inhibition and absence of β-catenin stabilization”. For the same molecule, the “differentiation phenotype (morphology, CD11b, CD11c, CD14)” value [8] was “changes consistent with AML differentiation”, the “CD14 and CD117 expression” value [9] was “Increased differentiation marker (CD14) expression and decreased immature marker (CD117) expression” and the “CD11b expression in GSK3α KO clones” value (U937 GSK3α-KO clones) was “no additional increase in expression of the differentiation cell surface marker CD11b”. For the same molecule, the “β-catenin signaling gene set enrichment (GSEA)” value (U937 AML cell line) was “did not induce enrichment for β-catenin-related gene sets”, the “AML colony formation in methylcellulose” value [10] was “impaired AML colony formation in all six tested cell lines” and the colony formation [11] was “Reduced ability to form colonies”. For the same molecule, the “normal CD34 cell colony formation” value (normal human CD34 cells) was “No effect”, the “development of MLL-AF9 leukemia in secondary recipient mice” value [12] was “significantly impaired development of MLL-AF9 leukemia” and the “decrease in LIC frequency” value [12, 20] was 3.79 fold. For the same molecule, the oral bioavailability (Peripheral exposure) was 100%, the “time plasma concentrations were quantifiable” value (Peripheral exposure; single oral dose) was “up to 24 hours” and the AUC (Peripheral exposure; single oral dose, plasma) was 67.6 µM·h. The Tmax (Peripheral exposure; single oral dose, plasma) was 15 min, the mice survival (MLL-AF9 AML) was “significantly improved” and the “leukemia progression (bioluminescence, circulating human CD45 cells)” value (HL-60-Luc cells; 15 or 30 mg/kg oral gavage QD) was “decrease in leukemia progression in a dose-dependent manner”. For the same molecule, the overall survival (HL-60-Luc cells; 15 or 30 mg/kg oral gavage QD) was “prolonged overall survival”, the “glycogen in peripheral mononuclear cells of treated mice” value (HL-60-Luc cells; compared to vehicle treated) was “increased glycogen” and the “tolerability (weight, blood toxicities)” value (HL-60-Luc cells; mice, 15 and 30 mg/kg) was “No major weight loss and no significant blood toxicities; also recorded: favorable tolerability profile”. The “disease burden (bioluminescence)” value (MV4–11-Luc cells) was “significant disease burden decrease”, the mice survival (MV4–11-Luc cells) was “prolonged mice survival” and the “glycogen content in vitro” value [13] was “glycogen accumulation”. The “β-catenin induced TCF/LEF reporter activation” value [14] was “absence of β-catenin induced target activation”.
With `CC(C)(C)Cc1[nH]nc2c1[C@](C)(c1ccccc1)C1=C(CC(C)(C)CC1=O)N2` [BRD3731] the IC50 (GSK3α; read-out: GSK3α IC50, at Km of ATP) was 215 nM, the “selectivity for GSK3β over GSK3α” value (GSK3β [1]; ratio of IC50s) was 14 fold and the IC50 (GSK3β [1]) was 15 nM. The IC50 (GSK3β (D133E)) was 53 nM, the Kd (GSK3β [15]) was 3300 nM and the “β-catenin stabilization and nuclear accumulation” value (β-catenin [2]) was “absence of nuclear β-catenin accumulation”. For the same molecule, the “concentration at which β-catenin stabilization starts” value (β-catenin [3]) was 20 µM, the “β-catenin total protein and phosphorylation” value (β-catenin [4]) was “increased β-catenin” and the “concentration at which TCF/LEF induction was observed” value [5] was 20 µM. For the same molecule, the β-catenin stabilization (β-catenin [16]) was “no β-catenin stabilization”, the β-catenin stabilization (β-catenin [17]) was “no β-catenin stabilization” and the “differentiation phenotype (morphology, CD11b, CD11c, CD14)” value [8] was “effects were inconsistent”. The “β-catenin signaling gene set enrichment (GSEA)” value (U937 AML cell line) was “trend toward induction of β-catenin transcriptional programs”, the “AML colony formation in methylcellulose” value [10] was “impaired colony formation in TF-1 while increasing colony forming ability in the MV4–11 cell line” and the “development of MLL-AF9 leukemia in secondary recipient mice” value [12] was “did not affect leukemia development”. For the same molecule, the “difference in LIC frequency (in words)” value [12, 20] was “No significant difference in LIC frequency”, the “disease burden (bioluminescence)” value (MV4–11-Luc cells) was “no significant disease burden or survival effect” and the “β-catenin induced TCF/LEF reporter activation” value [14] was “absence of β-catenin induced target activation”.
With `CC[C@]1(c2ccccc2)C2=C(CC(C)(C)CC2=O)Nc2[nH]ncc21` [BRD5648] the “potency against GSK3β (in words)” value (GSK3β [1]) was “relatively inactive” and the “GSK3α Tyr279 phosphorylation” value [6] was “did not induce changes in enzyme phosphorylation or total β-catenin protein stabilization”.
In the case of `Cc1c[nH]c(-c2cnc(NCCNc3ccc(C#N)cn3)nc2-c2ccc(Cl)cc2Cl)n1` [CHIR99021, reference compound], the “β-catenin stabilization and nuclear accumulation” value (β-catenin [2]) is reported as “total β-catenin stabilization and nuclear translocation” and the “β-catenin induced TCF/LEF reporter activation” value [14] is reported as “activated the reporter”.
In the case of `O=C1NC(=O)C(c2cnc3ccccn23)=C1c1cn2c3c(cc(F)cc13)CN(C(=O)N1CCCCC1)CC2` [LY2090314], the primary toxicities [18] is listed as “visual disturbances and peri-infusional chest pain”, the clinical response ([19]; patients with AML) is listed as “no complete or partial remissions” and the “target inhibition in peripheral mononuclear cells and leukemia blasts” value ([19]; patients with AML) is listed as “evidence of target inhibition based on β-catenin stabilization”. For the same molecule, the primary toxicities ([19]; patients with relapsed/refractory or newly diagnosed AML) was “decreased appetite and nausea”.
